These results are taken from patent publication EP2899531B1, “Method for detecting a chiral analytes” (Jacobs University Bremen gGmbH, priority 2013, dated 2015).

Experiment [1] deals with CB8-MDPP. Kind of experiment: Binding constants of chiral analytes with CB8-MDPP receptor complex, UV/Vis titration. As to conditions: CB8-MDPP (20 µM), H2O, 22 °C; from UV/Vis titrations, estimated error ≤ 10%. From the text: (§1) Bindungskonstanten zwischen CB8-Farbstoff-Komplexen und den in Tabelle 1 aufgeführten Analyten wurden mittels UV/Vis-Titration in H2O, sofern nicht anders angegeben, durchgeführt. Zu einer Lösung aus dem CB8-Farbstoff-Rezeptor wurde schrittweise eine Lösung des Analyten gegeben, und die UV/Vis-Spektren wurden aufgezeichnet. Die normalisierte Absorption bei 419 nm (CB8-MDAP) oder bei 443 nm (CB8-MDPP) wurde mit einer Gleichung für eine 1:1-Bindung mittels der Kleinstquadratmethode angepasst ([50]).

Experiment [2] relates to CB8-MDAP. Kind of experiment: Binding constants of chiral analytes with CB8-MDAP receptor complex, UV/Vis titration. As to conditions: CB8-MDAP (100 µM), H2O, 22 °C; from UV/Vis titrations, estimated error ≤ 10%.
Text: as §1

The test system of experiment [3] is CB8-MDPP. The experiment in a line: Binding constants of chiral analytes with CB8-MDPP receptor complex, ICD titration. As to conditions: CB8-MDPP (20 µM), H2O, 22 °C; obtained by ICD titration. From the text: Die Bindungsaffinitäten der strukturell verschiedenartigen Analyten lagen im Bereich von 10^3 bis 10^6 M^-1, wodurch eine hochempfindliche Detektion ermöglicht wird. Die durch ICD-Titrationen ermittelten Bindungskonstanten bestätigten die durch UV/Vis-Messungen ermittelten. In allen Fällen fungiert CB8 als unverzichtbare Grundlage für die ICD-Effekte. […] Wie erwartet, ergab ein anderer Reporter-Farbstoff, MDAP oder MVE, jeweils ein anderes ICD-Spektrum, jedoch bei gleichermaßen niedriger Analytenkonzentration (40-100 µM, im Vergleich zu 20 µM, s. Tabelle 4, Fig. 3).

Peptide text beside a SMILES is read from it.

With `N[C@@H](Cc1c[nH]c2ccccc12)C(=O)N1CCC[C@H]1C(=O)O` [TrpPro] (H-Trp-Pro-OH), the values for the Ka in experiment [1] and in experiment [2] were 430 10^3 M^-1 and 50 10^3 M^-1, respectively.

As to `N[C@@H](CC(=O)O)C(=O)N[C@@H](Cc1ccccc1)C(=O)O` [AspPhe] (H-Asp-Phe-OH), the Ka is on record as 7 10^3 M^-1 in experiment [1] and 0.8 10^3 M^-1 in experiment [2].

Consider `NCC(=O)N[C@@H](Cc1c[nH]c2ccccc12)C(=O)NCC(=O)O` [GlyTrpGly] (H-Gly-Trp-Gly-OH), for which, in experiment [1], the Ka is 5000 10^3 M^-1.

`N[C@@H](Cc1c[nH]c2ccccc12)C(=O)NCC(=O)NCC(=O)O` [TrpGlyGly] (H-Trp-Gly-Gly-OH): in experiment [1], the Ka was 200 10^3 M^-1.

`CC(C)[C@H](NC(=O)[C@@H](N)Cc1ccccc1)C(=O)O` [PheVal] (H-Phe-Val-OH): the values for the Ka in experiment [1], in experiment [3] and in experiment [2] were 1500 10^3 M^-1, 1400^d 10^3 M^-1 and 11 10^3 M^-1, respectively.

Regarding `N[C@@H](Cc1ccccc1)C(=O)NCC(=O)O` [PheGly] (H-Phe-Gly-OH), the results for the Ka in experiment [1] and in experiment [2] were 1900 10^3 M^-1 and 25 10^3 M^-1, respectively.

Regarding `N[C@@H](CCC(=O)O)C(=O)N[C@@H](Cc1c[nH]c2ccccc12)C(=O)O` [GluTrp] (H-Glu-Trp-OH), the Ka in experiment [1] is listed as 210 10^3 M^-1; in experiment [2] it was 25 10^3 M^-1.
